Measured values published in ChEMBL document CHEMBL2074099, “Divergent regulation of the class II P-glycoprotein gene in primary cultures of hepatocytes versus H35 hepatoma by glucocorticoids” (Cell Growth Differ, 1995).

Key:
[1] = target: T1, ATP-dependent translocase ABCB1 (Rattus norvegicus, UniProt P43245); assay: TP_TRANSPORTER: Western blot, primary hepatocytes; format: functional, cell-based, Hepatocyte
[2] = target: T1, ATP-dependent translocase ABCB1; assay: TP_TRANSPORTER: Northern blot from primary hepatocytes; format: functional, cell-based, Hepatocyte

T1 sequence (P43245 whole entry): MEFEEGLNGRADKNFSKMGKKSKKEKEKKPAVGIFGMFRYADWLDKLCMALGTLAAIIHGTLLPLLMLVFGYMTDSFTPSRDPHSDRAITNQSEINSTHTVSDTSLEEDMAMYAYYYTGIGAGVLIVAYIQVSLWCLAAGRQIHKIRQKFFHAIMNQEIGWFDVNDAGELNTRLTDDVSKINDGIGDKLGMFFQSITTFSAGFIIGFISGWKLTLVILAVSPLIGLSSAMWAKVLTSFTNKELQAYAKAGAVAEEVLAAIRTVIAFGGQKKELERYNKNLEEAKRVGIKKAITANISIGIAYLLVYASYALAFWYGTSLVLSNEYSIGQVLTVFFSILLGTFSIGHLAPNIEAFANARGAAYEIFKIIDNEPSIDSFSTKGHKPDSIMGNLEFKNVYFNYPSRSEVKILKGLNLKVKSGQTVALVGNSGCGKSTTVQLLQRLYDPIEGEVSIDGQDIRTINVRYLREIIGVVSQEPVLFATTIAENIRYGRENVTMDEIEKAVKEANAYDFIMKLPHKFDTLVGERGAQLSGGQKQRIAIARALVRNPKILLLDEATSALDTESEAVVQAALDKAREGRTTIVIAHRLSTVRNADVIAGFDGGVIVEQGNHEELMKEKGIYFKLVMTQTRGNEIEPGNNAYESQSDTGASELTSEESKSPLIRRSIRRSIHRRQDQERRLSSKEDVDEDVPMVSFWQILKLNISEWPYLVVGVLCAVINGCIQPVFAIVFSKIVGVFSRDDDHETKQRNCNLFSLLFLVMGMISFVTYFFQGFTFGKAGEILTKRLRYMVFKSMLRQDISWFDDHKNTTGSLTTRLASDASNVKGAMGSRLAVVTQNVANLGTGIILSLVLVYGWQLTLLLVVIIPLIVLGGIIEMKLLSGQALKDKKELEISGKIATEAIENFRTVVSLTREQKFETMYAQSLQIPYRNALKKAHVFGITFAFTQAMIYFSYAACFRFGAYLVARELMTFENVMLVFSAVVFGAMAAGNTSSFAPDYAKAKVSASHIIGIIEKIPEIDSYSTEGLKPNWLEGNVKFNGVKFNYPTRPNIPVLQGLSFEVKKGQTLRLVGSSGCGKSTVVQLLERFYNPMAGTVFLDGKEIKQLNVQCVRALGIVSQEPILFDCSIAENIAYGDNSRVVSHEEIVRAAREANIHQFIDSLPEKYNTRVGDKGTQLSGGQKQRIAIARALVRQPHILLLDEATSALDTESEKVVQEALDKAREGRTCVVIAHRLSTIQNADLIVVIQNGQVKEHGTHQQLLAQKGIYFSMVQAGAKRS

Activity [1]: inducer [Decrease] | Activity [2]: inducer [Decrease]
SMILES: C[C@@H]1C[C@H]2[C@@H]3CCC4=CC(=O)C=C[C@]4(C)[C@@]3(F)[C@@H](O)C[C@]2(C)[C@@]1(O)C(=O)CO [DEXAMETHASONE]
